In patent US7868204B2, “Inhibitors of histone deacetylase” (MethylGene Inc., priority 2001, dated 2011):

Experiments:
[1] = target: T1, cloned recombinant human HDAC-1 (Homo sapiens, UniProt Q13547); assay: Human HDAC-1 enzyme inhibition, Assay 1 ([3H]-acetylated histone substrate, scintillation counting); assay type: biochemical; details: Table 5F; read-out: Human HDAC-1 IC50
T1 construct: made in house; host or cells: Baculovirus insect cell expression system
Method in brief: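 Activity read as [3H]-acetic acid liberated from labeled substrate, ethyl acetate-extracted and scintillation-counted. Compounds preincubated 30 min at 4° C. with baculovirus-expressed, purified human HDAC-1. Dose-response curves give IC50 as concentration producing fifty percent of maximal inhibition.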

HCT116 cells = assay: MTT assay; assay type: cell-based; details: Homo sapiens, HCT-116, 72 h, Table 5F; HCT116 cells, 72 hours
Method in brief: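 Read-out: MTT (0.5 mg/ml final, 4 h) after solubilization in 50% DMF/20% SDS, pH 4.7, with OD translated into cell number via the line's growth curve. Compound treatment lasted 72 h at 37 °C in 5% CO2, starting a day after plating.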

[2] = system: acetylated histone H-4 in T24 human bladder cancer cells; assay: Histone H4 acetylation in whole cells by immunoblots; assay type: cell-based; details: T-24, Table 5F, 16 h, read-out: H4 Ac (T24) EC50
Method in brief: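 Acetylated histone H4 was quantified by densitometry of ECL-developed immunoblots, probed with a polyclonal antibody, of […] total histone from T24 cultures exposed 16 h to HDAC inhibitors.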

T1 sequence (Q13547 whole entry): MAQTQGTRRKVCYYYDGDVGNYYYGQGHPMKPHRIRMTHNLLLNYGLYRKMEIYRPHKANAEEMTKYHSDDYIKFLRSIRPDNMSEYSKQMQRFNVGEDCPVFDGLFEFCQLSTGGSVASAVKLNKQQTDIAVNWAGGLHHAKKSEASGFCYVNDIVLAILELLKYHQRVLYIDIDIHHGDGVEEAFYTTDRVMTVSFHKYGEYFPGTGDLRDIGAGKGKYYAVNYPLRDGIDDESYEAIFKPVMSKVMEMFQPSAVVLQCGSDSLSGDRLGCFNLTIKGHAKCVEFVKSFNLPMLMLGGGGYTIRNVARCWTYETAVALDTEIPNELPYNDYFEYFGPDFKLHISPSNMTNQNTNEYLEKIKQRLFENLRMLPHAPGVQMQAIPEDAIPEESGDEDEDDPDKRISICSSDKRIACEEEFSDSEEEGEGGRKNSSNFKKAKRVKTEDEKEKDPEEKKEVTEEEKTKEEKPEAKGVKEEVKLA

| IC50 [1] [µM] | IC50 (HCT116 cells) [µM] | EC50 [2] [µM] | Compound |
| --- | --- | --- | --- |
| 3 | 0.6 | 1 | Nc1ccccc1NC(=O)c1ccc(CNc2nccc(N3CCOCC3)n2)cc1 [Cpd 435, N-(2-Amino-phenyl)-4-[(4-morpholin-4-yl-pyrimidin-2-ylamino)-methyl]-benzamide] |
| 5 | 0.8 | 5 | Nc1ccccc1NC(=O)c1ccc(CNCCc2c[nH]c3ccccc23)cc1 [Cpd 436] |
| 3 | 0.4 | 1 | CSc1ccc(NCc2ccc(C(=O)Nc3ccccc3N)cc2)cc1 [Cpd 437] |
| 5 | 0.6 | 1 | CSc1cccc(NCc2ccc(C(=O)Nc3ccccc3N)cc2)c1 [Cpd 438, N-(2-Amino-phenyl)-4-[(3-methylsulfanyl-phenylamino)-methyl]-benzamide] |
| 3 | 0.4 | 1 | COc1ccc(-c2cc(Cl)nc(NCc3ccc(C(=O)Nc4ccccc4N)cc3)n2)cc1OC [Cpd 439] |
| 2 | 0.8 | 2 | COc1cc(NCc2ccc(C(=O)Nc3ccccc3N)cc2)c(C(C)=O)cc1OC [Cpd 441, 4-[(2-Acetyl-4,5-dimethoxy-phenylamino)-methyl]-N-(2-amino-phenyl)-benzamide] |
| 17 | 0.4 | 1 | COc1ccc(Nc2ccnc(NCc3ccc(C(=O)Nc4ccccc4N)cc3)n2)cc1OC [Cpd 442, N-(2-Amino-phenyl)-4-{[4-(3,4-dimethoxy-phenylamino)-pyrimidin-2-ylamino]-methyl}-benzamide] |
| 3 | 0.2 | 2 | CN(C)c1nc2cc(NCc3ccc(C(=O)Nc4ccccc4N)cc3)ccc2s1 [Cpd 448, N-(2-Amino-phenyl)-4-[(2-dimethylamino-benzothiazol-5-ylamino)-methyl]-benzamide] |
| 4 | 0.2 | 3 | Nc1ccccc1NC(=O)c1ccc(CNc2ccc3[nH]c(SCc4cccnc4)nc3c2)cc1 [Cpd 451] |
| 3 | 0.3 | 2 | Nc1ccccc1NC(=O)c1ccc(CNc2ccc3oc(SCc4cccnc4)nc3c2)cc1 [Cpd 452, N-(2-Amino-phenyl)-4-{[2-(pyridin-3-ylmethylsulfanyl)-benzooxazol-5-ylamino]-methyl}-benzamide] |
| 4 | 2 | 5 | COc1ccc(NCc2ccc(C(=O)Nc3cc(F)c(F)cc3N)cc2)cc1OC [Cpd 454, N-(2-Amino-4,5-difluoro-phenyl)-4-[(3,4-dimethoxy-phenylamino)-methyl]-benzamide] |
| 3 | 0.3 | 2 | COCCN1C(=O)c2ccc(NCc3ccc(C(=O)Nc4ccccc4N)cc3)cc2C1=O [Cpd 458, N-(2-Amino-phenyl)-4-([2-(2-methoxy-ethyl)-1,3-dioxo-2,3-dihydro-1H-isoindol-5-ylamino]-methyl}-benzamide] |
| 4 | 0.3 | 1 | CN1C(=O)C2(OCCO2)c2cc(NCc3ccc(C(=O)Nc4ccccc4N)cc3)ccc21 [Cpd 459] |
| 3 | 1 | 1 | Nc1ccccc1NC(=O)c1ccc(NCCNc2ccccc2)nc1 [Cpd 460, N-(2-Amino-phenyl)-6-(2-phenylamino-ethylamino)-nicotinamide] |
| 1.4 | 0.3 | 1 | Cn1c(=O)c2cc(NCc3ccc(C(=O)Nc4ccccc4N)cc3)ccc2n(C)c1=O [Cpd 461, N-(2-Amino-phenyl)-4-[(1,3-dimethyl-2,4-dioxo-1,2,3,4-tetrahydro-quinazolin-6-ylamino)-methyl]-benzamide] |
| 4 | 0.3 | 1 | Cn1c2ccc(NCc3ccc(C(=O)Nc4ccccc4N)cc3)cc2c2nc3ccccc3nc21 [Cpd 462] |
| 3 | 2 | 1 | Nc1ccccc1NC(=O)c1ccc(-c2ccc(CNCc3ccccn3)s2)cc1 [Cpd 466] |
